Measurements reported in patent publication US4891358A, “ANE derivatives with novel bridging” (Bio-Mega Inc., priority 1987, dated 1990).
Numbered stars: 1 amine (or outer) side, 2 acyl side, 3 side chain; on linkers, the order of the positions; unused ones are H or OH. Bridge positions count the residues as written; N and C are the ends. Square brackets hold non-standard residues; d marks the D form. Peptide text beside a SMILES is read from it. Pen = CC(C)(S)[C@H](N)C(=O)O; X1 = O=C(CCC[*:2])[*:1]

System: conscious normotensive rat
Assay: Diuretic assay in the conscious normotensive rat
Type: in vivo
Conditions: for URINE VOLUME: 0.5 μg/kg/min infusion via femoral vein, ratio of treated over control, volume in 10 minute sample (average of three consecutive samples); for ELECTROLYTE EXCRETION K^+ / ELECTROLYTE EXCRETION Na^+: 0.5 μg/kg/min infusion, treated minus controls, average of three samples
Source text: More explicitly, normotensive male rats (300-325 g) were anesthetized with halothane. Following an application of lidocaine 2% solution, the femoral artery was cannulated for measurements of blood pressure and heart rate, and the femoral vein was cannulated for the administration of the test compounds. The bladder was also cannulated to measure urine flow. After surgery was completed, the animals were placed in restraining cages and allowed to recover from anesthesia for a period of one hour. A Ringer's solution infusion was started at a rate of 1.2 ml per hour. Three control urine samples were collected at 10 minute intervals. The test compound was then infused at a rate varying from 0.5 to 3 μg/kg/min over 30 minutes. Three test samples of urine were collected at 10 minute intervals during the compound infusion. After the test compound had been infused for 30 minutes and 3 more urine samples were collected. The volume of each urine sample was determined and the electrolyte concentration was measured using a biomedical electrolyte analyser. The animals served as their own controls. The systolic and diastolic blood pressures and the heart rate were determined during each urine collection period.

Molecule | URINE VOLUME | ELECTROLYTE EXCRETION K^+ | ELECTROLYTE EXCRETION Na^+
CC[C@H](C)[C@@H]1NC(=O)[C@H](CCCNC(=N)N)NC(=O)[C@H](CC(=O)O)NC(=O)[C@H]([C@@H](C)CC)NC(=O)[C@H](CCCNC(=N)N)NC(=O)CNC(=O)CNC(=O)[C@H](Cc2ccccc2)NC(=O)CCCSC(C)(C)[C@@H](C(=O)N[C@@H](CC(N)=O)C(=O)N[C@@H](CO)C(=O)N[C@@H](Cc2ccccc2)C(=O)N[C@@H](CCCNC(=N)N)C(=O)N[C@@H](Cc2ccc(O)cc2)C(=O)O)NC(=O)CNC(=O)[C@H](CC(C)C)NC(=O)CNC(=O)[C@H](CO)NC(=O)[C@H](CCC(N)=O)NC(=O)[C@H](C)NC(=O)CNC1=O [rat[(CH2 CH2 CH2 CO)^105, Pen^121]-ANF(105-126)] (FGGRIDRIGAQSGLG[Pen]NSFRY-OH; linker N-16 via X1) | 3.0 | 24.8 | 17.9
rat [(CH2 -CH2 CH2 CO)^105]ANF-(105-126) [rat[(CH2 CH2 CH2 CO)^105]-ANF(105-126)] | 2.8 | 10.2 | 34.0
